Measurements from the NIST ThermoML archive (doi:10.1021/acs.jced.6b00497).
± gives the expanded uncertainty stated by the source.

Details: Crystal; DTA

Normal melting temperature: 220.00 ± 1 °C
Compound: O=C(O)c1cc(N=Nc2ccc(S(=O)(=O)Nc3ccccn3)cc2)ccc1O [Sulfasalazine]
